Compared with Cc1cccc(Cl)c1CCCOc1oc(-n2ccnc2C)nc1-c1ccc(Cl)cc1, c1cc(CCCCn2ccnc2)cc(OCc2ccc3oc(-c4cccs4)nc3c2)c1 is lower in melting point: 115 to 116 °C for the first, 97 to 98 °C for the second.

First: CCCc1c(CC)[nH]c(C(=O)OCC)c1C
Second: CCOC(=O)c1ccc2c(c1)OC(CCCBr)C(=O)N2 (stereo not drawn)
The melting point of the first is lower: 86 to 87 °C for the first, 118 to 119 °C for the second.

Compared with CCOC(=O)c1cnc2ccc(CC3CCOCC3)cc2c1O, COc1c(N2CC[C@@H](C(C)(C)N)C2)c(F)cc2c(=O)c(C(=O)O)cn(C3CC3)c12 is lower in melting point: 275 to 280 °C for the first, 225 to 227 °C for the second.

First: COc1ccc2c(-c3ccccc3)c(C(=O)c3ccccc3OC)sc2c1
Second: CC(=O)Oc1ccc(-c2cnc(NS(=O)(=O)Cc3ccccc3)c(Cc3ccccc3)n2)cc1
The melting point of the first is lower: 111 to 112 °C for the first, 240 to 241 °C for the second.

First: CC(=O)Nc1ccc([N+](=O)[O-])cc1O
Second: COC(=O)C(C)c1nsc2ccc([N+](=O)[O-])cc12 (stereo not drawn)
The melting point of the first is higher: > 250 °C for the first, 88 to 90 °C for the second.

First: CN(C)CCOc1cc(C(=O)N2CCC(N(C)CCc3ccccc3)CC2)ccc1-n1cncn1
Second: CCCN(CCC)C1Cc2c(-c3ncco3)ccc3c2C(C1)CN3C(=O)c1ccccc1 (single isomer, unassigned; (-))
The melting point of the first is lower: 83 to 85 °C for the first, 103 to 104 °C for the second.

Compared with CC(C)(C)OC(=O)NCc1ccc(-c2ccc(O)c(Br)c2)cc1, CCOC(=O)CC(=O)c1ccc(-c2ccccc2)cc1 is lower in melting point: 113 to 117 °C for the first, 75 to 77 °C for the second.

First: CCOP(=O)(Cc1ccccc1NC(=O)C1=Cc2cc(C3CCCCC3)ccc2CC1)OCC
Second: CN(Cc1ccc(NC(=O)C2=Cc3cc(-c4cc5ccccc5o4)ccc3S(=O)(=O)CC2)cc1)C1CCOCC1
The melting point of the first is lower: 102 to 103 °C for the first, 234 to 235 °C for the second.

Compared with COC(=O)COc1ncccc1[N+](=O)[O-], COC(=O)CNc1cccc(C#N)c1 is higher in melting point: 61.5 °C for the first, 91.5 to 92.5 °C for the second.

Compared with O=C(O)c1ccc(CCn2ccn([C@H]3CCc4c(F)cc(F)cc4C3)c2=S)cc1, O=C(O)C(O)=CC(=O)c1cc(Cc2ccc(F)cc2F)cn(Cc2ccccc2F)c1=O is lower in melting point: 222 to 224 °C for the first, 187 to 189 °C for the second.

First: CC(C)(C)COCCOc1ccc(OCC(O)CNCCNC(=O)N2CCOCC2)cc1 (stereo not drawn)
Second: CCCc1nn(-c2ccc(C(F)(F)F)cn2)cc1CCCOc1ccc(OC)c(CCC(=O)O)c1
The melting point of the first is lower: 90 °C for the first, 104 to 106 °C for the second.

First: Cc1ncc2n1-c1ccc(C(C)O)cc1C(c1ccccc1)=NC2 (stereo not drawn)
Second: O=C1CCc2c1cccc2-c1ccccc1
The melting point of the first is higher: 223 to 225 °C for the first, 85 to 90 °C for the second.

Compared with NC(=O)C1C=Cc2ccccc2N1C(=O)c1ccc(F)cc1 (stereo not drawn), O=C(CBr)c1ccc(Sc2ccccc2)cc1 is lower in melting point: 149 to 151 °C for the first, 46 °C for the second.

Compared with CS(=O)(=O)c1cccc(NC(=O)c2ccccc2O)c1, O=C(NNS(=O)(=O)c1ccccc1)c1ccc(F)cc1Cl is lower in melting point: 210 to 212 °C for the first, 147 to 149 °C for the second.

First: Cc1c(Sc2cc(Cl)c(Cl)cc2Cl)cc(C(C)(C)C)c(O)c1C(=O)Nc1ccc([N+](=O)[O-])cc1C(F)(F)F
Second: COC(=O)C(C)(C)Cc1c(SC(C)(C)C)c2cc(OCc3ccc4cc(F)c(F)cc4n3)ccc2n1Cc1ccc(Cl)cc1
The melting point of the first is higher: 179 to 180 °C for the first, 171 to 173 °C for the second.

Compared with COc1cc2c(cc1OC)C(C)(CC(=O)O)OCC2 (stereo not drawn), Cc1cc2c(cc1C(=O)C(C)CC(=O)O)NC(=O)CO2 (stereo not drawn) is higher in melting point: 89 to 92 °C for the first, 170 to 172 °C for the second.

Compared with Nc1cc(C(F)(F)F)c(Br)cc1S(=O)(=O)c1ccccc1, CN(C)S(=O)(=O)c1ccc(Cl)c(-c2csc(=Nc3ccccc3)n2C)c1 is higher in melting point: 169 to 171 °C for the first, 195 to 197 °C for the second.

First: O=c1[nH]c2ccc(Cl)cc2c2nc(-c3cccnc3)nn12
Second: Cn1ncc(C(=O)O)c1C(=O)Nc1ccn2nc(-c3cccnc3)nc2c1
The melting point of the first is lower: 189 to 193 °C for the first, > 250 °C for the second.

First: OC/C=C/C=C(c1ccccc1)c1ccccc1
Second: CN(C(=O)N1Cc2nc(Cc3ccccc3)n(Cc3ccccc3)c2C[C@H]1CO)c1ccccc1
The melting point of the first is lower: 71 to 72 °C for the first, 80 to 87 °C for the second.

First: O=C1NOc2cccc3nc4c(c(c23)C1Cc1ccccc1)CCCC4 (stereo not drawn)
Second: Cc1ccccc1N1CCN(CCc2ccc(N3CCCNC3=O)cc2)CC1
The melting point of the first is higher: 166 to 168 °C for the first, 127 to 128 °C for the second.

Compared with Fc1ccc(C(CN2CCOCC2)=C2SCCCS2)cc1, C#CCNC(=O)c1cccc(F)c1Nc1nc(Nc2ccc3c(c2)OCCCN3C(C)=O)ncc1Cl is higher in melting point: 104 to 106 °C for the first, 196 to 199 °C for the second.

First: Cc1nc2[nH]c(=O)ccc2c(C)c1C
Second: Cc1cc(C)c2cccc(C(=O)Nc3nnn[nH]3)c2n1
The melting point of the first is lower: 170 to 175 °C for the first, 300 to 305 °C for the second.

Compared with Cc1cc(Br)cnc1CCCCNc1ncc(Cc2ccc(O)cc2)c(=O)[nH]1, CCCCOc1cc(CCC(=O)O)ccc1CCCc1ccc(OS(=O)(=O)CC)c(OC)c1 is lower in melting point: 232 to 234 °C for the first, 64 °C for the second.

Compared with CCCNC(=O)C1(CCCCN2CCC(N3Cc4ccccc4C3=O)CC2)C(c2ccccc2)=Cc2ccccc21 (stereo not drawn), OCc1cccc(-c2ccc3nc(-c4coc5ccccc45)cn3c2)c1 is lower in melting point: 156 to 157 °C for the first, 150 to 152 °C for the second.

First: Cc1noc(C2CCCCC2=O)n1 (stereo not drawn)
Second: Cc1nc2sc(Cl)cn2c(=O)c1O
The melting point of the first is lower: 74 to 76 °C for the first, 214 to 217 °C for the second.

First: Cc1cccc(Nc2nc(-c3cn[nH]c3)c(F)s2)n1
Second: O=c1nc(-c2cccc(CC(O)=S)n2)sc2ccccc12
The melting point of the first is lower: 204 °C for the first, 258 to 260 °C for the second.

Compared with c1ccc(COc2ccc3c(ccn3Nc3ccncc3)c2)cc1, COC(=O)C=Cc1cncn1Cc1ccccc1 is lower in melting point: 143 to 145 °C for the first, 137 to 139 °C for the second.

First: CC(=O)c1c(N)c(-c2ccccc2)n(C)c1C
Second: N=C1NC(=O)C(c2ccccc2)S1 (stereo not drawn)
The melting point of the first is lower: 124 to 126 °C for the first, 249 to 252 °C for the second.

Compared with CC(C)Cn1nc(-c2ccc(C(F)(F)F)cc2)cc(COS(C)(=O)=O)c1=O, Cc1nc(-c2ccc(NS(=O)(=O)c3sc4ccc(F)cc4c3C)c(S(C)(=O)=O)c2)cs1 is higher in melting point: 123 to 124 °C for the first, 217 to 220 °C for the second.

First: CN(C[C@H]1CC[C@H](C#CCO)CC1)C(=O)OC(C)(C)C
Second: COc1ccc2c(c1)CC1=C2NN(C(=O)OC(C)(C)C)C1c1cccs1 (stereo not drawn)
The melting point of the first is lower: 97 to 99 °C for the first, 163 to 165 °C for the second.

First: C#Cc1cccc(Nc2ncnc3cc(OCCOC(C)=O)c(OCCOC)cc23)c1
Second: CCCCCOc1ccc(CCOc2ccc(/C=C(\OCC)C(=O)O)cc2OCCCC)cc1Cl
The melting point of the first is higher: 134 to 135 °C for the first, 95 °C for the second.

Compared with CCCOc1ccc(Cl)cc1C1=NC(=O)C2=NC=NC2=N1, COCCNC(=O)c1c(O)c2cc(Cl)ccc2n(C)c1=N is lower in melting point: 277 to 279 °C for the first, 209 to 211 °C for the second.

Compared with CC1=CC2=C(N3CN(n4cc(C)nc4-c4cc(Cl)ccc4Cl)C=C3N=N2)N(c2cc(Cl)ccc2Cl)C1, CC(C)c1cc(-c2ccc3c(c2)OCO3)nc(Cl)c1C#N is higher in melting point: 130 °C for the first, 171 to 173 °C for the second.

First: Oc1c(CCl)cc(Cl)cc1CCl
Second: CCOC(=O)C(=O)NNC(=O)c1cc(C)cc(C)c1
The melting point of the first is lower: 88 °C for the first, 159 °C for the second.

First: CCCCCCCCCCCCC#CCC(NC(C)=O)(C(=O)OCC)C(=O)OCC
Second: CC(C)(CO)CCCCC(O)CCCCC(C)(C)CO
The melting point of the first is lower: 43 to 43.5 °C for the first, 72 to 74 °C for the second.

First: CCNCCCCCC(C)O (stereo not drawn)
Second: COC(=O)[C@]1(C)Oc2ccccc2NC1=O
The melting point of the first is lower: 37 to 38 °C for the first, 153 to 157 °C for the second.

Compound Cc1cc(NC(=O)C2=C(O)c3ccsc3S(=O)(=O)C2)no1 has a melting point of 209 to 210 °C.

Reference: a melting point compilation (Tetko et al.; mined from patent text by program, amines drawn as free bases though some values may be those of a salt)
